Bridge positions count the residues as written; N and C are the ends. Peptide text beside a SMILES is read from it.
Assays:
para/tipE = experiment: Two-electrode voltage-clamp on Xenopus laevis oocytes expressing insect Nav channel para/tipE; assay type: cell-based, Fruit fly; details: 1 µM; voltage of maximum sodium influx, holding −90 mV; oocytes TEVC; n ≥ 3
Excerpt: (§1) Using the two-electrode voltage-clamp technique on Xenopus laevis oocytes, the effect of PhlTx1 was also compared on eight different cloned vertebrate Nav channels co-expressed with the β1 subunit (Nav1.1-1.8/β1) and on the neuronal insect Nav channel, para, co-expressed with the tipE subunit (Figure 3 and Figure 4). […] Normalized current-voltage relationships (I-V curve) of Nav1.2/β1 and Nav1.3/β1 channels seemed to be shifted towards more negative potentials when PhlTx1 was applied, but shifts were not statistically significant […] (Figure 4). The activation phase of the other studied Nav channel subtypes was not affected. No obvious alteration in channel availability was observed, except a 5-mV negative shift for Nav1.3/β1, although that was also non-significant (p > 0.05).
(§2) Figure 4 1 µM of PhlTx1 was tested on Nav1.1/β1, Nav1.2/β1, Nav1.3/β1, Nav1.4/β1, Nav1.5/β1, Nav1.6/β1, Nav1.8/β1 and para/tipE (n ≥ 3). Left column: current traces were evoked by a 50-ms depolarization to the voltage of maximum sodium influx, depending on the Nav studied, from a holding potential of −90 mV. At 1 µM PhlTx1, all studied Nav channels, except Nav1.4/β1, were blocked for about 10% (no toxin: *). The current of Nav1.4/β1 was reduced for about 35 ± 5%. Middle column: normalized I-V curves reveal no significant shift of the activation voltage (p > 0.05). […]

Nav1.5/β1 = experiment: Two-electrode voltage-clamp on Xenopus laevis oocytes expressing Nav1.5/β1; assay type: cell-based; details: 1 µM; voltage of maximum sodium influx, holding −90 mV; oocytes TEVC; n ≥ 3
Excerpt: as §1, §2

Nav1.7/β1 = target: T1, Nav1.7/β1 (Rattus norvegicus, UniProt O08562); experiment: Two-electrode voltage-clamp on Xenopus laevis oocytes expressing Nav1.7/β1; assay type: cell-based
T1 construct: expressed in transfected cells; host or cells: Xenopus laevis oocytes injected with cRNA

[1] = test system: formalin-induced spontaneous pain behavior; experiment: Formalin pain test in mice after intrathecal injection; assay type: in vivo, C57BL/6J mice; details: intrathecal, 10 µL; PhlTx1 100 pmoles (n = 5), morphine 0.25 mg (n = 6); 10 µL 5% formalin in hindpaw; versus vehicle
[2] = mice; PhlTx1 100 pmoles or morphine 0.25 mg in 10 µL
Kv3.4 = experiment: Ion channel selectivity screen, voltage-clamp, heterologous expression in Xenopus laevis oocytes and/or COS cells; assay type: cell-based; details: 1 μM PhlTx1
Nav1.3/β1 = experiment: Two-electrode voltage-clamp on Xenopus laevis oocytes expressing Nav1.3/β1; assay type: cell-based
Excerpt: as §1, §2

T1 sequence (O08562 whole entry): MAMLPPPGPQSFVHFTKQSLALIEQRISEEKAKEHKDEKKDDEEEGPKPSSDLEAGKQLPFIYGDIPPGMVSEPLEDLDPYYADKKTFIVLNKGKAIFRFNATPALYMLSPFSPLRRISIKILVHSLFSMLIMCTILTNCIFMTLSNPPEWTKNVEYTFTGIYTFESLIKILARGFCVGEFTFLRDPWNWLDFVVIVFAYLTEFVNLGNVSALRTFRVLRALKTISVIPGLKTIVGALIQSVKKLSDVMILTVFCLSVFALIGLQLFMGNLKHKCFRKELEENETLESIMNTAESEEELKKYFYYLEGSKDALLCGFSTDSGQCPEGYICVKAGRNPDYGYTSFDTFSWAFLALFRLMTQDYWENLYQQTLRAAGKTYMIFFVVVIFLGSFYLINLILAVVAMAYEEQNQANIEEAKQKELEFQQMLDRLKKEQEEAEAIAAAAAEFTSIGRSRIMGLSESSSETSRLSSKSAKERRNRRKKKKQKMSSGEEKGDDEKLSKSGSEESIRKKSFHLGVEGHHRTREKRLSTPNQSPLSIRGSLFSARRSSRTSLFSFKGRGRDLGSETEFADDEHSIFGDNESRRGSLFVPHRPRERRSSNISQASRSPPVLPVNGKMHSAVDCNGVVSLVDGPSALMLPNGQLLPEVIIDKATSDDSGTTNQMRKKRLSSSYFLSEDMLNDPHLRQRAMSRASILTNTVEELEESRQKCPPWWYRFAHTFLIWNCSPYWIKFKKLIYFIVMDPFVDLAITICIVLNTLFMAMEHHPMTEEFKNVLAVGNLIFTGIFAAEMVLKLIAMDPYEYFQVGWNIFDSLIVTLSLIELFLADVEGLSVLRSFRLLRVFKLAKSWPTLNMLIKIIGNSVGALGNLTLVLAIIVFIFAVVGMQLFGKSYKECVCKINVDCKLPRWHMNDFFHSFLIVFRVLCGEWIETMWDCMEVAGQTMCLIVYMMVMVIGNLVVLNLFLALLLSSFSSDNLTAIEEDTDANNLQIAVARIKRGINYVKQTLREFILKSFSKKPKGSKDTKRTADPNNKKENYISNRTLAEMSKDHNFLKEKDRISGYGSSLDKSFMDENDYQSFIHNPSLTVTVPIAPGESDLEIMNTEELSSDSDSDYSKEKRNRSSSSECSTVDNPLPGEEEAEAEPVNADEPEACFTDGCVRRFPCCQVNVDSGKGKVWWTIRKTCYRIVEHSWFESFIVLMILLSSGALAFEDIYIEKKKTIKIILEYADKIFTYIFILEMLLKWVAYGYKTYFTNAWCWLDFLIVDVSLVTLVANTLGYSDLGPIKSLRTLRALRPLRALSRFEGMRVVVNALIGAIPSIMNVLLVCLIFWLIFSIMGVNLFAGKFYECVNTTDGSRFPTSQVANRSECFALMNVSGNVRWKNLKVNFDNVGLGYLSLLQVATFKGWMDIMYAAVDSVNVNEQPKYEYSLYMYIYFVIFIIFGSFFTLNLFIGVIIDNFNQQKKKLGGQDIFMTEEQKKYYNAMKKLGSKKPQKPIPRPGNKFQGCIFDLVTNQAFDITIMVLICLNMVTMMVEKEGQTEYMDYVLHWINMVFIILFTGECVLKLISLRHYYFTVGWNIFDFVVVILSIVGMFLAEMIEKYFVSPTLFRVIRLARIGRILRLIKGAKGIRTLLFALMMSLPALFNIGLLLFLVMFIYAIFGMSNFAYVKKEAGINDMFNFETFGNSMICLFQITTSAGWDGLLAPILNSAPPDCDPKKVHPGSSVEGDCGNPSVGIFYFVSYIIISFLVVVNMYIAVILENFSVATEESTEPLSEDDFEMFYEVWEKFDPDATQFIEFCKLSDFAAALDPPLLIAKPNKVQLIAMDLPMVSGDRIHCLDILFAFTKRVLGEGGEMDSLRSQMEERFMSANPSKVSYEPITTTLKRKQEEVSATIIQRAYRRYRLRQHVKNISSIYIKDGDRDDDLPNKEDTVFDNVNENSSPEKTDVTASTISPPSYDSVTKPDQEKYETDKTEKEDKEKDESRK
T1 sequence (Q00954 19-218 partner): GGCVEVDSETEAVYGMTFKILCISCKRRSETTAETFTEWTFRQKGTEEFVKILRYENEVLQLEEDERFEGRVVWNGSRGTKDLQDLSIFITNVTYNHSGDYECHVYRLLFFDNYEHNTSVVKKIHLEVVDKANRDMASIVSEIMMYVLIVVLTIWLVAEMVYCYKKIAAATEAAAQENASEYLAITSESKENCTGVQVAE

CC(C)C[C@@H]1NC(=O)[C@@H](NC(=O)[C@H](C)N)CSSC[C@@H]2NC(=O)[C@@H]3CSSC[C@@H](C(=O)N[C@@H](CCCNC(=N)N)C(=O)N[C@@H](Cc4ccc(O)cc4)C(=O)N[C@@H](CCCCN)C(=O)N[C@@H](CC(C)C)C(=O)N[C@@H](Cc4ccccc4)C(=O)O)NC(=O)[C@H](Cc4c[nH]c5ccccc45)NC(=O)[C@@H]4CCCN4C(=O)[C@H](Cc4ccc(O)cc4)NC(=O)[C@H](CCCCN)NC(=O)[C@H](Cc4c[nH]c5ccccc45)NC(=O)[C@H](CCC(=O)O)NC(=O)[C@H](CSSC[C@H](NC(=O)[C@H](CO)NC(=O)[C@H](CC(=O)O)NC(=O)[C@H](Cc4c[nH]c5ccccc45)NC(=O)[C@H](CCC(N)=O)NC(=O)CNC1=O)C(=O)N[C@@H](CC(=O)O)C(=O)N1CCC[C@H]1C(=O)N[C@@H](CCCCN)C(=O)N[C@@H](C)C(=O)N[C@@H](CO)C(=O)N[C@@H](CCCCN)C(=O)N3)NC(=O)[C@H](C)NC(=O)[C@H](Cc1ccc(O)cc1)NC(=O)[C@H](CC(N)=O)NC(=O)[C@@H]1CCCN1C2=O [PhlTx1, Phlotoxin-1] (H-ACLGQWDSCDPKASKCCPNYACEWKYPWCRYKLF-OH; disulfide 2-17, 9-22, 16-29; N-terminus and C-terminus assumed)
block of sodium current (para/tipE): about 10% | block of sodium current (Nav1.5/β1): about 10% | inhibition at 1 µM (Nav1.7/β1; 1 µM, holding −90 mV, oocytes TEVC, clone rPN1, read-out: inhibition of inward currents): 90 ± 7% | IC50 (Nav1.7/β1; Xenopus laevis oocytes, stimulus frequency 0.3 Hz, Hill equation fit, n = 4, 0.1% BSA): 260 ± 46 nM | Hill coefficient (Nav1.7/β1; Xenopus laevis oocytes, stimulus frequency 0.3 Hz, n = 4): 1.3 | formalin-induced pain behavior (licking), Phase II (inflammation, 10–45 min) [1]: substantially reduced the response | formalin-induced pain behavior, Phase I (acute pain, 0–10 min) [1]: substantially reduced the response | neurotoxicity after intrathecal injection [2]: no neurotoxicity was observed | current inhibition at the voltage of maximum ion flux (Kv3.4): ~20% | negative shift in channel availability (Nav1.3/β1; 1 µM PhlTx1, non-significant (p > 0.05)): 5 mV | block of sodium current (Nav1.3/β1; 1 µM, voltage of maximum sodium influx, holding −90 mV, oocytes TEVC, n ≥ 3): about 10%

— PMC6628435, “Chemical Synthesis, Proper Folding, Nav Channel Selectivity Profile and Analgesic Properties of the Spider Peptide Phlotoxin 1” (Toxins, 2019)
